The source of these data is US20240200022A1, “METHODS AND SYSTEMS FOR THE CULTURE OF CELLS AT LIQUID-LIQUID INTERFACES” (QUEEN MARY UNIVERSITY OF LONDON, priority 2017, published 2024).

What all share (type): cell-based, human
Test [1] deals with HaCaT cells. In words: HaCaT cell spreading assay on oil interfaces (cell area from phalloidin staining). The conditions noted are these: HaCaT on BSA interfaces, Novec 7500+PFBC; blebbistatin 10 μM, Y27632 10 μM, Cytochalasin D 1 μM.
Description: Generation of fluorinated oil droplet substrates for cell culture. Thin glass slides (25×60 mm, VWR) were plasma oxidized for 10 minutes and placed into a staining jar. Toluene (1 mL, Sigma-Aldrich) and 30 μL trichloro (1H, 1H, 2H, 2H-perfluorooctyl) silane (Sigma-Aldrich) were added in a glass vial. The staining jar containing the glass slides and the glass vial with the silane solution were placed into a desiccator under vacuum for 5 min and then left under reduced atmosphere but sealed overnight. The fluorinated glass slides were cut into chips (1×1 cm) and placed into a 24 well plate. After sterilisation with 70% ethanol, the wells were washed (twice) and then filled with 2 mL PBS (pH 7.4, except when specified, for the adsorption of poly(L-lysine) at pH 10.5). 100 tL droplets of fluorinated oil (Novec 7500) with fluorinated surfactant (2,3,4,5,6-Pentafluorobenzoyl chloride) at specified concentrations (see specific experiments, but often 0.01 mg/mL) were deposited on top of the glass slide and formed a fluorinated oil droplet spreading over the entire substrate. […] For the deposition of BSA, a 10 μL BSA solution (100 mg/mL) was added into PBS, to make a final concentration of 1 mg/mL, and incubated for 1 h.
HaCaT keratinocyte cell line culture and seeding. Human keratinocyte HaCaT cells were cultured in DMEM (Thermofisher Scientific) containing 10% foetal bovine serum (FBS, Labtech), 1% L-Glutamine (200 mM) and 1% Penicillin-Streptomycin (5,000 U/mL). […] For cell spreading assays HaCaT cells were harvested and seeded onto fluorinated droplets at a density of 25,000 per well (13,000 per cm^2).
Immuno-fluorescence microscopy and data analysis. Fluorescence microscopy images were acquired with a Leica DMI4000B fluorescence microscopy (CTR4000 lamp; 63×1.25 NA, oil lens; 10×0.3 NA lens; 2.5×0.07 NA lens; DFC300FX camera). […] To determine adhesion cell areas, images were analyzed by thresholding and watershedding fluorescence images of the cytoskeleton (phalloidin stained). […]
The next test concerns MSCs. In words: MSC culture on fluorinated oils conditioned with culture medium only. The note with it: after 7 days of culture; no protein nanosheets deposition, conditioning with cell culture medium. The method, then: (§1) Generation of liquid-liquid (FC-40) interfaces for cell culture. 24 well plates were plasma oxidized using a plasma coater (Diener, 100% intensity) for 10 minutes. 500 mL ethanol (VWR chemicals), 10 mL trimethylamine (Sigma-Aldrich) and 10 mL of the desired silane (triethoxy(octyl)silane (Sigma-Aldrich) to prepare interfaces with liquid PDMS, or trichloro (1H, 1H, 2H, 2H-perfluorooctyl) silane (Sigma-Aldrich) for the fluorinated oil) were added into each well. Ethanol was added in between wells to slow down evaporation and parafilm was used to seal the well plate lid. After incubating for 24 h, the wells were washed in a sterile environment with ethanol (twice) and ddH2O (three times). 500 μL FC-40 (Sigma) was added in the fluorophilic 24 well plate to form the bottom liquid layer, 2 mL of MSC growth medium was directly added on the FC-40 layer, 5K cells were seeded in each well.

A further test concerns primary keratinocytes. In words: Keratinocyte cell sheet formation on flat fluorinated oil interfaces. The note with it: FAD medium containing ROCK inhibitor, 10 μM; PLL-functionalised fluorinated oil. The text has this:
Keratinocyte culture and seeding.
Immunofluorescence staining and antibodies.
Immuno-fluorescence microscopy and data analysis. Fluorescence microscopy images were acquired with a Leica DMI4000B fluorescence microscopy (CTR4000 lamp; 63×1.25 NA, oil lens; 10×0.3 NA lens; 2.5×0.07 NA lens; DFC300FX camera). Confocal microscopy images were acquired with a Leica TCS SP2 confocal and multiphoton microscope (X-Cite 120 LED lamp; 63×1.40-0.60 NA, oil lens; 10×0.3 NA lens; DFC420C CCD camera). To determine cell densities per mm^2, cell counting was carried out by thresholding and watershedding nuclei images in ImageJ. […] To determine adhesion cell areas, images were analyzed by thresholding and watershedding fluorescence images of the cytoskeleton (phalloidin stained). The area of cell clusters was removed when analysing results.

Test [2] concerns HaCaT cells. In words: HaCaT cell proliferation on liquid substrates (Hoechst staining). The note with it: fluorinated oil supplemented with the surfactant. The method, then: as §1, with “liquid-liquid” for “liquid-liquid (FC-40)”, “[…]” for “mL”, “PDMS” for “PDMS,”, “cover.” for “lid.”, “500 μL FC-40 (Sigma) was added in the fluorophilic 24 well plate to form the bottom liquid layer, 2 mL of MSC growth medium was directly added on the FC-40 layer, 5K cells were seeded in each well.” left out
Hoechst staining and LIVE/DEAD cell viability assay. Cell proliferation was assessed via Hoechst staining. […] Viability of HaCaT cells on fluorinated oil interfaces was quantified by LIVE/DEAD viability/cytotoxicity assay using a kit supplied by Thermofisher Scientific. In brief, HaCaT cells were incubated in DMEM with 2 μM Calcein AM and 4 μM Ethidium homodimer for 30 min. stained cells were imaged using a Leica DM14000 fluorescence microscopy (see below). The percentage of viable cells was calculated by counting the number of green (live) cells and dividing by the total number of cells (including dead cells).
Immuno-fluorescence microscopy and data analysis. […]

On to `C=C1[C@@H](C)[C@H]2[C@H](Cc3ccccc3)NC(=O)[C@]23[C@H](OC(C)=O)/C=C/[C@@](C)(O)C(=O)[C@@H](C)C/C=C/[C@H]3[C@@H]1O` [cytochalasin D, Cytochalasin D], for which the “cell spreading on oil” value in the test with HaCaT cells [1] is “further decreased”.
Consider `Cc1ccc2c(c1)C(=O)C1(O)CCN(c3ccccc3)C1=N2` (stereo not drawn) [Blebbistatin, blebbistatin], for which the “cell spreading on oil” value with HaCaT cells [1] is recorded as “slight increase”.
For `CCOC(F)(C(F)(F)C(F)(F)C(F)(F)F)C(F)(C(F)(F)F)C(F)(F)F` (stereo not drawn) [Novec 7500, hexane, 3-ethoxy-1,1,1,2,3,4,4,5,5,6,6,6-dodecafluoro-2-(trifluoromethyl)], the MSC proliferation entry in the test on MSCs was “did not lead to any significant cell proliferation”.
For `C[C@@H](N)[C@H]1CC[C@H](C(=O)Nc2ccncc2)CC1` [Y27632], the “cell spreading on oil” value in the test on HaCaT cells [1] is given as “further decreased”. Further, in the test with primary keratinocytes, the “integrity of keratinocyte cell sheets on oil” value is on record as “preserved their integrity”.
For `O=C(Cl)c1c(F)c(F)c(F)c(F)c1F` [pentafluorobenzoyl chloride, 2,3,4,5,6-pentafluorobenzoyl chloride], the “HaCaT cell proliferation at the surface of fluorinated oil” value with HaCaT cells [2] is “proliferated”.
